Each structure is given as a SMILES string.

One assay deals with G6PC. Kind of assay: Western blot of G6PC protein in IMR-32 cells. In kind it is cell-based, human. The note with it: 150 ppb, 24 hours. The protocol: IMR-32 cells were seeded on 6-well plates and then treated with control and various compounds for 6 hours and 24 hours, as described above. After treatments, cells were rinsed with ice-cold PBS and lysed in ice-cold RIPA buffer containing complete proteinase and phosphatase inhibitors (Thermo-Fisher Scientific, Waltham, Mass.) on ice for 30 min Cell lysates were collected using a cell scraper and transfer pipette and then centrifuged at 12000×g for 30 min at 4° C. to remove the DNA pellet and obtain the protein extract. Protein levels in the supernatant of these cell lysates were determined using the Pierce Micro-BCA protein assay kit (Thermo Scientific-Piece Biotechnology, Rockford, Ill.) according to the manufacturer's protocol […]
Positive signals on the membrane blots were detected using Amersham's enhanced chemiluminescence (ECL) Western Blotting Prime Detection reagents (GE healthcare Lifescience, Pittsburgh, Pa.). Images of these luminescence signals on the membrane blots were captured using the LI-COR Odyssey Fc Image system (Lincoln, Nebr.). […] Protein band densities in the Western blots were determined using the Li—COR Image studio software or NIH ImageJ software, and then normalized by ACTB protein level in each sample. […]
On the technique in general: A western blot detects proteins with antibodies after separation by electrophoresis.

Assay [1] deals with Aβ plaque deposits (Aβ1-42). Kind of assay: IHC analysis of amyloid deposits in the brains of APP/PS1 mice. In kind it is in vivo, mouse. The settings on record: diet with 1 ppm Se from Compound C, 6 to 12 months of age. The protocol:
Male APPΔNLh/ΔNLh×PS1P246 L/246 L knock-in model mice of Alzheimer's disease (abbreviated APP/PS1) were genotyped using standard primers for human APP (Amyloid Precursor Protein) and human PS1 (PSEN1). These APP/PS1 mice starting at the age of 6 months, were fed either a control diet containing normal levels of selenium (0.3 ppm from plant and inorganic selenium salt sources) or an experimental diet containing Compound C (the control diet to which was added 1 ppm Se from Compound C) for 6 months.
At 12 months of age, the mice were euthanized and the brains quickly removed, the cerebellum isolated and the hemispheres snap-frozen in liquid nitrogen and then stored at −80° C. for further immunohistochemistry (IHC), protein and RNA analysis. All procedures conducted on these animal studies were pre-approved by the University of Kentucky IACUC committee.
Frozen brain tissues were sectioned using a Leica-CM1900 cryostat (Leica Microsystems Inc., Bannockburn, Ill.), as described previously (Zhang et al, 2008. Biochem Biophys Res Commun). These frozen brain sections were subjected to immunohistochemistry staining of Aβ plaques using a specific polyclonal antibody against Aβ1-42 (Abcam) and the Rabbit ImmunoCruz Staining System (Santa Cruz Biotechnology, Santa Cruz, Calif.) according to the manufacturer's protocol. […]

The next assay concerns MAPK13. Nature of the assay: QRT-PCR of MAPK13 mRNA in control and FOXO4 KD IMR-32 cells. In kind it is cell-based, human. The settings on record: 24 hours. The protocol: IMR-32 cells were cultured on 12-well plates for 24 hours and then incubated with FOXO4 siRNA lentiviruses (SC-29650V, Santa Cruz) or control siRNA lentiviruses (sc-108080, Santa Cruz) in the presence of Polybrene (5 μg/ml, Santa Cruz) for 24 hours according to the manufacturer's protocol. These lentiviral siRNA-transfected cells were amplified in normal media for 3 days and then incubated with puromycin for 9-14 days to obtain the stable Control KD (stably transfected with the control siRNAs) and FOXO4KD (stably transfected with Foxo4 siRNAs) cells. These control and Foxo4 KD cells were subjected to cell survival, mitochondrial potential and RNA analysis.
Human IMR-32 cells were seeded on gelatinized 6-well (6.5×10^5 cells/well) or 24-well (1.3×10^5 cells/well) plates. Cells were treated with control (0 ppb) or various compounds for 6 hours or 24 hours. Total RNA from these cells was isolated using Trizol (Invitrogen) according to the manufacturer's protocol, and then incubated with DNase I to remove any potential contaminated genomic DNA. Then RNA samples were subjected to real-time PCR analysis using the Applied-Bioscience's RT kit and predesigned Taqman probes (Invitrogen), as described previously (Lan et al EMBO J 2003). The mRNA levels of UCP1, UCP2, UCP3, SLC25A27 (UCP4), SLC25A14 (UCP5), PSEN1, Nicastrin, GSK3B, MAPK11-14, PPARG, APOE, RCAN1, RCAN1.1, G6PC, INSR, IGF1R and FOXO4 were measured. Three to six samples were analyzed in each treatment group. Data were normalized by Actin B (ACTB) or Glyceraldehyde Phosphate Dehydrogenase (GAPDH) mRNA levels in each sample and are presented as mean±SEM of 3-6 samples.
Normal control cells and FOXO4KD cells were incubated with two doses of Compound C for 24 hours, and subjected to QRT-PCR analysis of the MAPK11-14 genes. The relative mRNA expression of all four MAPK genes in normal control IMR-32 cells was assessed. […] Data in Compound C-treated control and FOXO4 KD cells were normalized by their levels in control and FOXO4KD cells, respectively. Mean±SEM of indicated number of samples in the bar graphs. […]

For the molecule `C[Se]C[C@H]1O[C@@H](n2cnc3c(N)ncnc32)C(O)C1O` (stereo in doubt) [Compound C, 5′-deoxy-5′-methylselenoadenosine], in the assay with G6PC, the G6Pc protein levels entry is reported as “visibly increased”. For the same molecule, the “increase of G6Pc protein expression levels” value in the assay on G6PC (quantitative analysis) was approximately 3 fold. Also, the “Aβ plaque deposits in the brain cortex (IHC, Aβ1-42 staining)” value in assay [1] was “much fewer and/or weaker-staining”. Also, the “Aβ plaque deposits in the brain hippocampus (IHC, Aβ1-42 staining)” value in assay [1] is given as “much fewer and/or weaker-staining”. Also, the “MAPK13 mRNA levels” value in the assay with MAPK13 (FOXO4KD cells, 75 ppb and 150 ppb) is reported as “none of the mRNA levels of the four MAPK genes in FOXO4KD cells were significantly altered”; with MAPK13 (control KD cells, 75 ppb), “trend towards decreased”; in the assay with MAPK13 (control KD cells, 150 ppb) it was “significantly decreased”.

The values are drawn from patent US10201558B2, “Compositions of selenoorganic compounds and methods of use thereof” (Alltech, Inc., priority 2014, dated 2019).
